Source: a melting point compilation (Tetko et al.; mined from patent text by program, amines drawn as free bases though some values may be those of a salt)

Row | Structure (SMILES) | melting point [°C]
1 | CCCn1c(=O)c2c(nc(/C=C/c3ccc(OC)c(OC)c3)n2C)n(CCC)c1=O | 127
2 | CCCCOP(=O)(C/C=C/CC1(C(=O)NCCC)c2cc(F)ccc2-c2ccc(F)cc21)OCCCC | 142 to 146
3 | C=CCN1CCCC1CNC(=O)c1cc(S(=O)(=O)CC)cc2c1OCCO2 (stereo unspecified) | 78 to 80
4 | Cc1cc(C#N)cc(C(=O)c2[nH]c(=O)[nH]c(=O)c2C(C)(C)C)c1 | 270 to 271
5 | COc1nc(C)c(N2CCCn3c2nc2c(C#N)ccc(C(OC(F)F)C(F)(F)F)c23)c(C)n1 (stereo unspecified) | 250 to 252
6 | CCC(=O)n1c(=O)[nH]c(=O)n1C(=O)CC | 208
7 | FC(F)(F)c1ccc(-c2cc(C(F)(F)F)n3ncc(-c4ccccn4)c3n2)cc1 | 202
8 | CCCc1c(OCCCOc2ccc([N+](=O)[O-])cc2)ccc(C(C)=O)c1O | 98
9 | COc1ccc(C(=O)C[N+](=O)[O-])c(O)c1 | 138 to 140
10 | O=C(Cl)c1cc2[nH]c3cc(Cl)ccc3c2o1 | 232 to 233
11 | O=C(O)COc1nnc(C(Cl)Cl)s1 | 114
12 | OC1CSC(Oc2cncc(-c3ncccc3Cl)c2)C(O)C1O (stereo unspecified) | 193
13 | NCCCC(N)(C(=O)O)C(F)F (stereo unspecified) | 183
14 | CS(=O)(=O)c1cc([N+](=O)[O-])ccc1OC(F)(F)F | 102 to 104
15 | CCOC(=O)COc1coccc1=O | 58 to 60
16 | Cc1c(Cc2nc3n(-c4c(Cl)cc(Cl)cc4Cl)[nH]c(C(C)C)c-3c(=O)n2)cccc1NC(=O)CCl | 237 to 238
17 | CC(=O)c1cc(NC(=O)CCCC(=O)Nc2cc(C(C)=O)cc(C(C)=O)c2)cc(C(C)=O)c1 | 200 to 203
18 | Cc1noc(NS(=O)(=O)c2ccc(F)cc2)c1Br | 142 to 144
19 | OCCCSCCSCCCO | 52
20 | COc1cc(Cc2nc(NC(C)C)c3c(C)c(C#N)sc3n2)cc(OC)c1OC | 143 to 147
21 | O=c1[nH]c2ccc(Cn3ccnc3)cc2[nH]1 | 254
22 | CC1(C2OCCO2)C=CC(C#N)=CC1 (stereo unspecified) | 70

Row | Structure (SMILES) | melting point [°C]
23 | N#CSc1ccc([N+](=O)[O-])cc1C(Cl)(Cl)Cl | 72
24 | O=Cc1cc(Cl)ccc1Oc1ccc(Cl)cc1[N+](=O)[O-] | 128 to 130
25 | NP(N)(=O)c1ccccc1 | 187 to 191
26 | CC(C)(NC=O)c1cc(Cl)cc(Cl)c1 | 115 to 117
27 | O=C(Cn1c(=O)oc2ccc(Cl)cc21)c1ccc(C(F)(F)F)cc1 | 188 to 189
28 | ONCCc1ccccc1 | 118 to 121
29 | COc1cc(Nc2c(C#N)cnc3cc4cc(OCCCCl)c(OC)cc4cc23)c(Cl)cc1Cl | 220 to 223
30 | O=S(=O)(Nc1ccc2c(OCc3csc(-c4ccc(OC(F)(F)F)cc4)n3)cccc2c1)C(F)(F)F | 131 to 132
31 | CCCc1c(O)ccc2c(=O)cc(/C=C/C(=O)OCC)oc12 | 203 to 204
32 | O=c1cc(-c2ccc(F)cc2)c2ccc(Sc3cc(F)cc(C(O)(c4nccs4)C(F)(F)F)c3)cc2o1 (stereo unspecified) | 72 to 73
33 | CCOP(=O)(OCC)C(P(=O)(OCC)OCC)S(=O)(=O)c1cc(C(C)(C)C)c(O)c(C(C)(C)C)c1 | 118 to 120
34 | C=CCNc1c(CO)cnc2cn(C)nc12 | 151 to 159
35 | Cc1ccc(S(=O)(=O)NC(CSCC(=O)O)C(=O)O)cc1 (stereo unspecified) | 152
36 | N#Cc1c[nH]c2cc(Cl)c([N+](=O)[O-])cc2c1=O | > 300
37 | CCCn1c(=O)c2[nH]c(/C=C/c3cccc(Cl)c3)nc2n(CCC)c1=O | 259
38 | COC(=O)CCC(C)C1CC=C2C3=C(CCC21C)C1(C)CCC(O)C(C)(C)C1CC3 (stereo unspecified) | 156 to 157
39 | CC(/C=C/C(=O)N1CCCc2cc3c(cc21)C(C)(C)CCC3(C)C)=C\C(=O)O | 225 to 227
40 | Cc1nc(N)nc(CCCCCCCCCCO)c1O | 103 to 104
41 | CCCCCCCc1ccc(NS(=O)(=O)c2ccc(N3CCNC3=O)cc2)cc1 | 188 to 190
42 | N#Cc1ccc(-c2ccc3oc(CCN)cc3c2)cc1 | 118 to 120
43 | COc1cncc(OC)c1CCCOc1cccnc1Cc1cccc(Br)c1 | 153 to 165
44 | O=C(NN=Cc1ccncc1)OC(c1ccccc1)c1ccccc1 | 159 to 160

Results, then the compound that gave them:

Row | melting point [°C] | Structure (SMILES)
45 | 145 to 147 | C#CCOc1cc(C(=O)O)cc([N+](=O)[O-])c1-c1ccccc1
46 | 80 | CN(C)CCOc1cc(-c2ccccc2)nn1N
47 | > 235 | O=C(O)c1ccc2c(c1)Nc1ccccc1S2
48 | 157 to 159 | COCc1cn(-c2cccc(C(F)(F)F)c2)nc(C(=O)N(C)OC)c1=O
49 | 69 to 71 | Fc1cccc(CC[C@H]2CN(Cc3ccccc3)CCN2Cc2ccccc2)c1
50 | 123 to 124 | CC(C)C[C@H](NC(=O)OCc1ccc(Cl)cc1)C(=O)N[C@@H](Cc1ccccc1)C(=O)CSCc1ccco1
51 | 298 to 301 | COc1cc2ccn3c(=O)c(C(=O)O)cnc3c2cc1OC
52 | 167 to 168 | CC(C)(C)[Si](C)(C)N1C(=O)[C@@H](N2C(=O)c3ccccc3C2=O)[C@H]1/C=C/c1ccccc1 (relative stereo)
53 | 46 to 48 | C=C1c2ccccc2-c2ccccc21
54 | 165 to 169 | CN1CCN(c2cc(Cl)cc3c2c(=O)n(Cc2cccc(Cl)c2)c(=O)n3Cc2ccccc2)CC1
55 | 139 to 140 | CC1=Nc2ccccc2CC(c2ccc(C)s2)N1C (stereo unspecified)
56 | 160 to 162 | N#CNc1nccc(Oc2ccc(NC(=O)c3cc(F)cc(N4CCCCC4)c3)c3ccccc23)n1
57 | 126 to 128 | Cc1cc(SC2CC(=O)N(c3ccccc3)C2=O)cc(C(C)(C)C)c1N (stereo unspecified)
58 | 54 to 55 | OCCCc1conc1-c1ccc(Cl)c(F)c1
59 | 148 to 152 | CCOc1ccc(-c2[nH]c(-c3ccc([N+](=O)[O-])cc3)nc2C(=O)O)cc1
60 | 52 to 55 | COC(=O)C[C@H](O)C[C@H](O)CCc1c(-c2ccc(F)cc2)c(-c2ccccc2)c(C(=O)NCc2ccccc2)n1C(C)C
61 | 165 to 167 | CS(=O)(=O)c1ccc(-c2cnn(CC(F)(F)F)c(=O)c2SC2CCCCC2)cc1
62 | 103 to 104 | C(=C\c1nc(COc2ccc(CCCn3nccn3)cc2)co1)/c1ccccc1
63 | 358 to 359 | COc1ccc(-c2nc3ccc(C(=O)O)cc3[nH]2)cc1C12CC3CC(CC(C3)C1)C2

Row | melting point [°C] | Structure (SMILES)
64 | 120 to 125 | COC1(F)C=CC=C(c2cc(CBr)c(=O)n(Cc3ccc(F)cc3)n2)C1 (stereo unspecified)
65 | 90 to 92 | O=C1c2ccccc2C(=O)N1CCCCCCc1cccnc1
66 | 66 to 67 | O=[N+]([O-])c1cc(F)ccc1Sc1ccccc1
67 | 156 to 158 | c1ccc(N2CCNc3nc4ccccc4n3CC2)cc1
68 | 82 to 84 | O=C1CC[C@@H](CO)N1Cc1ccccc1
69 | 69 to 70 | CN(C)CCCn1c(-c2ccc(Br)cc2)cc2c1CCCCC2
70 | 118 | C(=C\c1nc2ccccc2n1-c1cccnc1)/c1ccccc1
71 | 195 to 196 | CNC(=O)c1cc(-c2ccc(OC)cc2)nn(CC(=O)NCc2ccccn2)c1=O
72 | 146 | CSc1c(CO)sc2c1CCN(C)CC2c1ccccc1 (stereo unspecified)
73 | 168 to 171 | COC(=O)C(Cc1ccc(OCc2nc3ccc(OC)cc3n2C)cc1)NS(C)(=O)=O (stereo unspecified)
74 | 204 to 206 | COc1cc2nc(-c3ccc(Cl)cc3)nc(Cl)c2cc1OC
75 | 132 to 133 | Cc1ccc(Oc2ccccc2-n2cncn2)c(O)c1
76 | 163 to 165 | COc1cccc2c1CCC(CN1CCC(O)(c3ccccc3)CC1)C2=O (stereo unspecified)
77 | 231 to 234 | Cn1cc(C2=C(c3cn(C4CCN(CC(F)(F)C(F)(F)C(F)(F)F)CC4)c4ccccc34)C(=O)NC2=O)c2ccccc21
78 | 136 to 137 | COc1cc(CCCC2OC(=O)NC2=O)ccc1OCc1csc(CCc2ccccc2)n1 (stereo unspecified)
79 | 150 to 151 | N#CC=C(Cc1ccc2c(c1)OCO2)Nc1ccccc1
80 | 128 to 132 | CCOC(=O)C1=C(C)NC(COC(N)=O)=C(C(=O)OCC)C1c1ccccc1[N+](=O)[O-] (stereo unspecified)
81 | 179 to 181 | O=C(c1ccc(-n2cccn2)cc1)N1Cc2cccn2Cc2ccccc21
82 | 97 to 98 | CC(=O)OC(C)c1ccc2cc(OCc3ccccc3)ccc2c1 (stereo unspecified)

Row | melting point [°C] | Structure (SMILES)
83 | 174 | CCc1nn(CCOc2ccc(CC3SC(=O)NC3=O)cc2)c(=O)c2ccccc12 (stereo unspecified)
84 | 244 to 248 | Cc1nc2cc(-c3ccccc3)nn2c2c1CCN2C(C)(C)C
85 | 157 to 158 | CCc1noc(=O)c2ccc(NC(=O)C(=O)CC(C)(C)c3cc(F)ccc3OC)cc12
86 | 76.5 to 78 | COc1ccc(-c2cccc(O)c2)cc1
87 | 190 to 193 | N#CCc1cccc(-c2ccc3c(c2)C2(CCCCC2)C(=O)N3)c1
88 | 178 to 179 | O=C(NC(Cc1ccc(OCc2ccccc2)cc1)C(=O)O)c1cn2nc(SCc3ccccc3)ccc2n1 (stereo unspecified)
89 | 103 to 105 | COc1ccc2c(c1C)CCCC2=O
90 | 164 to 167 | N=C(NO)C1(c2ccccc2Br)CC1
91 | 234 | O=C(O)c1cc(-c2ccccc2)c2sccc2c1
92 | 229 to 230 | O=C(CN1C(=O)C2(COc3cc4c(cc32)CCO4)c2c(-c3cncnc3)cccc21)Nc1ccccc1F (stereo unspecified)
93 | 250 to 255 | Cc1ccc(F)c2c1N(CC(=O)Nc1ccccc1F)C(=O)C21COc2cc3c(cc21)CCO3 (stereo unspecified)
94 | 127 to 128 | Cc1ccc(F)cc1C1CC(=O)c2c(C)cnnc2C1 (stereo unspecified)
95 | 173 to 175 | CCOc1ccc2c(c1)C(N)(c1ccccc1Cl)C(=O)N2 (stereo unspecified)
96 | 125 to 128 | CCOC(CCn1c(-c2ccc(F)cc2)c(-c2ccccc2)c(C(=O)Nc2ccccc2)c1C(C)C)OCC
97 | 249 | CNC(=O)c1cccc2cccc(C(=O)Nc3ccc(F)cc3C)c12
98 | 224 to 225 | O=C(NCc1ccccn1)c1cc(-n2cnn(Cc3ccc(F)cc3)c2=O)n[nH]1
99 | 30 | CC(=O)CCc1ccc(-c2ccccc2F)cc1
100 | 199 to 200 | COc1cc(C(=O)O)ccc1Cn1nc(OC)c2ccc(NC(=O)OC3CCCC3)cc21
101 | 195 to 198 | O=C1NC(=O)C(Cc2ccc(N3CCC(NC[C@H](O)c4cccc(Cl)c4)CC3)cc2)S1 (stereo partly specified)
